According to the supplement of paper PMC8617591:

Columns and labels:
[1] = test system: Mycobacterium tuberculosis Erdman (autoluminescent); assay: Einf, fitted maximum growth inhibition (fraction); higher = stronger maximal inhibition
Method: (§1)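 DiaMOND dose responses (10 doses, 1.5- or 2-fold spacing, equipotent around IC90) of autoluminescent M. tuberculosis Erdman in 8 in vitro models. Read-out is OD600, or luminescence for the intracellular (J774) and dormancy models, background-subtracted and normalised to untreated wells. A 3-parameter Hill fit gives Einf and AUC25 (area to IC25 normalised by IC25); GRinf comes from a Hill fit of the Hafner normalised growth rate. Biological replicates passing QC are averaged. Single drugs only.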

[2] = test system: Mycobacterium tuberculosis Erdman (autoluminescent); assay: AUC25, normalised area under dose response up to IC25 (fraction (0-1)); higher = more potent at low dose
Method: as §1

[3] = test system: Mycobacterium tuberculosis Erdman (autoluminescent); assay: GRinf, maximum normalised growth rate inhibition (unitless (-1 to 1)); higher = less effect (negative = killing)
Method: as §1

COc1nc2ccc(Br)cc2cc1[C@@H](c1ccccc1)[C@@](O)(CCN(C)C)c1cccc2ccccc12 [bedaquiline]
Conditions	AUC25, [2]	Einf, [1]	GRinf, [3]
in vitro model: acidic pH 5.7, time point: constant (~7 days, model-specific)	0.109	0.921	-0.617
in vitro model: acidic pH 5.7, time point: terminal (~4-5 doublings, model-specific)	0.0902	0.988	-0.475
in vitro model: intracellular J774, time point: constant = terminal	–	0.979	-0.319

Conditions	AUC25, [2]	Einf, [1]	GRinf, [3]
in vitro model: butyrate, time point: constant (~7 days, model-specific)	0.0777	0.964	-0.167
in vitro model: butyrate, time point: terminal (~4-5 doublings, model-specific)	0.0609	0.984	-0.138
in vitro model: cholesterol 0.05 mM, time point: constant (~7 days, model-specific)	0.0895	0.766	-0.328
in vitro model: cholesterol 0.05 mM, time point: terminal (~4-5 doublings, model-specific)	0.0718	0.946	-0.335
in vitro model: cholesterol-high 0.2 mM, time point: constant (~7 days, model-specific)	0.0559	0.975	-0.613
in vitro model: cholesterol-high 0.2 mM, time point: terminal (~4-5 doublings, model-specific)	0.0462	1	-0.647
in vitro model: dormancy (butyrate + nitrate, low O2), time point: constant (~7 days, model-specific)	0.0618	0.908	0.184
in vitro model: dormancy (butyrate + nitrate, low O2), time point: terminal (~4-5 doublings, model-specific)	0.0799	0.979	-0.0503
in vitro model: standard 7H9 glycerol, time point: constant = terminal	0.0758	0.97	-0.118
in vitro model: valerate, time point: constant (~7 days, model-specific)	0.0789	0.92	-0.142
in vitro model: valerate, time point: terminal (~4-5 doublings, model-specific)	0.0549	0.963	-0.0955

CC(C)/N=c1\cc2n(-c3ccc(Cl)cc3)c3ccccc3nc-2cc1Nc1ccc(Cl)cc1 [clofazimine]
Conditions	AUC25, [2]	Einf, [1]	GRinf, [3]
in vitro model: acidic pH 5.7, time point: constant (~7 days, model-specific)	0.0949	0.748	0.0361
in vitro model: acidic pH 5.7, time point: terminal (~4-5 doublings, model-specific)	0.0888	0.966	-0.229
in vitro model: intracellular J774, time point: constant = terminal	–	0.997	-0.696

Conditions	AUC25, [2]	Einf, [1]	GRinf, [3]
in vitro model: butyrate, time point: constant (~7 days, model-specific)	0.0887	0.963	-0.0183
in vitro model: butyrate, time point: terminal (~4-5 doublings, model-specific)	0.0859	0.989	-0.0492
in vitro model: cholesterol 0.05 mM, time point: constant (~7 days, model-specific)	0.129	0.527	0.329
in vitro model: cholesterol 0.05 mM, time point: terminal (~4-5 doublings, model-specific)	0.13	0.844	0.0361
in vitro model: cholesterol-high 0.2 mM, time point: constant (~7 days, model-specific)	0.12	0.938	-0.473
in vitro model: cholesterol-high 0.2 mM, time point: terminal (~4-5 doublings, model-specific)	0.114	1	-0.945
in vitro model: dormancy (butyrate + nitrate, low O2), time point: constant (~7 days, model-specific)	0.115	0.876	0.339
in vitro model: dormancy (butyrate + nitrate, low O2), time point: terminal (~4-5 doublings, model-specific)	0.0838	0.922	-0.0947
in vitro model: standard 7H9 glycerol, time point: constant = terminal	0.113	0.965	-0.0492
in vitro model: valerate, time point: constant (~7 days, model-specific)	0.155	0.88	-0.412
in vitro model: valerate, time point: terminal (~4-5 doublings, model-specific)	0.0638	0.895	0.239

CC[C@@H](CO)NCCN[C@@H](CC)CO [ethambutol]
Conditions	AUC25, [2]	Einf, [1]	GRinf, [3]
in vitro model: acidic pH 5.7, time point: constant (~7 days, model-specific)	0.103	0.785	-0.121
in vitro model: acidic pH 5.7, time point: terminal (~4-5 doublings, model-specific)	0.0746	0.963	-0.204
in vitro model: intracellular J774, time point: constant = terminal	–	0.977	-0.237

Conditions	AUC25, [2]	Einf, [1]	GRinf, [3]
in vitro model: butyrate, time point: constant (~7 days, model-specific)	0.0706	0.86	0.144
in vitro model: butyrate, time point: terminal (~4-5 doublings, model-specific)	0.0701	0.918	0.173
in vitro model: cholesterol 0.05 mM, time point: constant (~7 days, model-specific)	0.0906	0.621	0.0788
in vitro model: cholesterol 0.05 mM, time point: terminal (~4-5 doublings, model-specific)	0.0751	0.907	-0.193
in vitro model: cholesterol-high 0.2 mM, time point: constant (~7 days, model-specific)	0.0267	0.85	-0.161
in vitro model: cholesterol-high 0.2 mM, time point: terminal (~4-5 doublings, model-specific)	0.0346	1	-0.768
in vitro model: dormancy (butyrate + nitrate, low O2), time point: constant (~7 days, model-specific)	0.0829	0.777	0.544
in vitro model: dormancy (butyrate + nitrate, low O2), time point: terminal (~4-5 doublings, model-specific)	0.0685	0.914	0.295
in vitro model: standard 7H9 glycerol, time point: constant = terminal	0.0599	0.852	0.208
in vitro model: valerate, time point: constant (~7 days, model-specific)	0.0683	0.728	0.301
in vitro model: valerate, time point: terminal (~4-5 doublings, model-specific)	0.0665	0.832	0.297

NNC(=O)c1ccncc1 [isoniazid]
Conditions	AUC25, [2]	Einf, [1]	GRinf, [3]
in vitro model: acidic pH 5.7, time point: constant (~7 days, model-specific)	0.0571	0.674	0.0942
in vitro model: acidic pH 5.7, time point: terminal (~4-5 doublings, model-specific)	0.0392	0.933	-0.101
in vitro model: intracellular J774, time point: constant = terminal	–	0.932	-0.113

Conditions	AUC25, [2]	Einf, [1]	GRinf, [3]
in vitro model: butyrate, time point: constant (~7 days, model-specific)	0.0446	0.937	-0.0682
in vitro model: butyrate, time point: terminal (~4-5 doublings, model-specific)	0.0452	0.981	-0.137
in vitro model: cholesterol 0.05 mM, time point: constant (~7 days, model-specific)	0.101	0.738	-0.177
in vitro model: cholesterol 0.05 mM, time point: terminal (~4-5 doublings, model-specific)	0.0895	0.915	-0.208
in vitro model: cholesterol-high 0.2 mM, time point: constant (~7 days, model-specific)	0.0813	0.905	-0.466
in vitro model: cholesterol-high 0.2 mM, time point: terminal (~4-5 doublings, model-specific)	0.0704	0.994	-0.567
in vitro model: dormancy (butyrate + nitrate, low O2), time point: constant (~7 days, model-specific)	0.0691	0.903	0.286
in vitro model: dormancy (butyrate + nitrate, low O2), time point: terminal (~4-5 doublings, model-specific)	0.0601	0.982	-0.0707
in vitro model: standard 7H9 glycerol, time point: constant = terminal	0.0311	0.882	0.145
in vitro model: valerate, time point: constant (~7 days, model-specific)	0.0515	0.881	0.0138
in vitro model: valerate, time point: terminal (~4-5 doublings, model-specific)	0.0365	0.932	0.0316

CC(=O)NC[C@H]1CN(c2ccc(N3CCOCC3)c(F)c2)C(=O)O1 [linezolid]
Conditions	AUC25, [2]	Einf, [1]	GRinf, [3]
in vitro model: acidic pH 5.7, time point: constant (~7 days, model-specific)	0.105	0.813	-0.255
in vitro model: acidic pH 5.7, time point: terminal (~4-5 doublings, model-specific)	0.086	0.966	-0.214
in vitro model: intracellular J774, time point: constant = terminal	–	0.947	-0.297

Conditions	AUC25, [2]	Einf, [1]	GRinf, [3]
in vitro model: butyrate, time point: constant (~7 days, model-specific)	0.0921	0.894	0.0641
in vitro model: butyrate, time point: terminal (~4-5 doublings, model-specific)	0.0673	0.941	0.0625
in vitro model: cholesterol 0.05 mM, time point: constant (~7 days, model-specific)	0.152	0.692	-0.0397
in vitro model: cholesterol 0.05 mM, time point: terminal (~4-5 doublings, model-specific)	0.152	0.927	-0.195
in vitro model: cholesterol-high 0.2 mM, time point: constant (~7 days, model-specific)	0.119	0.967	-0.633
in vitro model: cholesterol-high 0.2 mM, time point: terminal (~4-5 doublings, model-specific)	0.117	1	-0.803
in vitro model: dormancy (butyrate + nitrate, low O2), time point: constant (~7 days, model-specific)	0.0427	0.907	0.164
in vitro model: dormancy (butyrate + nitrate, low O2), time point: terminal (~4-5 doublings, model-specific)	0.0425	0.989	-0.0469
in vitro model: standard 7H9 glycerol, time point: constant = terminal	0.0679	0.904	0.0704
in vitro model: valerate, time point: constant (~7 days, model-specific)	0.106	0.912	-0.0706
in vitro model: valerate, time point: terminal (~4-5 doublings, model-specific)	0.0701	0.948	-0.0311
